The record followed here is paper PMC6541917 (Journal of medicinal chemistry, 2018).

One series concerns HIV-1APV^R5 μM. The format is cell-based. The settings on record: HIV-1APV^R5 μM compared to wild-type HIV-1NL4–3.
The subject of series [1] is HIV-1NL4–3. Nature of the series: antiviral p24 Gag assay in MT-4 cells, wild-type virus. The series is classed as cell-based. The settings on record: Human immunodeficiency virus 1, MT4, read-out: mean IC50 ± SD.
A further series relates to MT-4 cells. The settings on record: ratio of CC50 to IC50.
The next series relates to HIV-1ATV^R5μM. The format is cell-based. The settings on record: HIV-1ATV^R5μM compared to wild-type HIV-1NL4–3.
For series [2], the system named is HIV-1NL4–3. Nature of the series: antiviral assay in MT-4 human T-lymphocytes exposed to HIV-1NL4–3. The series is classed as cell-based. The settings on record: Human immunodeficiency virus 1, MT4, in Homo sapiens, read-out: antiviral IC50.
A further series is described as follows: in vitro. The settings on record: human.
Another series relates to HIV-1LPV^R5μM. The series is classed as cell-based. The settings on record: HIV-1LPV^R5μM compared to wild-type HIV-1NL4–3.
The test system of series [3] is multidrug-resistant HIV-1 variants. Description: microbe, parasite or virus in culture. The series is classed as cell-based. The settings on record: Human immunodeficiency virus 1, read-out: antiviral IC50, range over variants.

Consider `C=C(C)CN1C(=O)O[C@@H]2C[C@H](OC(=O)N[C@@H](Cc3ccccc3)[C@H](O)CN(CC(C)C)S(=O)(=O)c3ccc(OC)cc3)C[C@@H]21` [Inhibitor 4k, (3aS,5R,6aR)-3-(2-Methylallyl)-2-oxohexahydro-2H-cyclopenta[d]oxazol-5-yl ((2S,3R)-3-Hydroxy-4-((N-isobutyl-4-methoxyphenyl)sulfonamido)-1-phenylbutan-2-yl)carbamate], for which the figures for the “IC50 fold-change (in parentheses)” value in the series with HIV-1APV^R5 μM and with HIV-1ATV^R5μM were 11 and 1, respectively. The values for the IC50 in the series with HIV-1NL4–3 [1] and in the series on HIV-1NL4–3 [2] were 23 ± 0.1 nM and 31 nM, respectively. For the same compound, the selectivity index in the series with MT-4 cells was greater than 3226.

Regarding `COc1ccc(S(=O)(=O)N(CC(C)C)C[C@@H](O)[C@H](Cc2ccccc2)NC(=O)O[C@@H]2C[C@@H]3NC(=O)O[C@@H]3C2)cc1` [Inhibitor 4a, (3aS,5R,6aR)-2-Oxohexahydro-2H-cyclopenta[d]oxazol-5-yl ((2S,3R)-3-Hydroxy-4-((N-isobutyl-4-methoxyphenyl)-sulfonamido)-1-phenylbutan-2-yl)carbamate], in the series on MT-4 cells, the selectivity index is recorded as greater than 2070.

With `COc1ccc(S(=O)(=O)N(CC(C)C)C[C@@H](O)[C@H](Cc2ccccc2)NC(=O)O[C@@H]2C[C@@H]3OC(=O)N(C)[C@@H]3C2)cc1` [Inhibitor 4d, (3aR,5S,6aS)-3-Methyl-2-oxohexahydro-2H-cyclopenta[d]-oxazol-5-yl ((2S,3R)-3-Hydroxy-4-((N-isobutyl-4-methoxyphenyl)sulfonamido)-1-phenylbutan-2-yl)carbamate], in the series with MT-4 cells, the selectivity index is greater than 229.

For `COc1ccc(S(=O)(=O)N(CC(C)C)C[C@@H](O)[C@H](Cc2ccccc2)NC(=O)O[C@H]2C[C@H]3OC(=O)N(C)[C@H]3C2)cc1` [Inhibitor 4c, (3aS,5R,6aR)-3-Methyl-2-oxohexahydro-2H-cyclopenta[d]-oxazol-5-yl ((2S,3R)-3-Hydroxy-4-((N-isobutyl-4-methoxyphenyl)sulfonamido)-1-phenylbutan-2-yl)carbamate], in the series with MT-4 cells, the selectivity index is on record as greater than 2778. The CC50 in the series “in vitro” is greater than 100000 nM.

As for `COc1ccc(S(=O)(=O)N(CC(C)C)C[C@@H](O)[C@H](Cc2ccccc2)NC(=O)O[C@H]2C[C@H]3OC(=O)N(CC(C)C)[C@H]3C2)cc1` [Inhibitor 4l, (3aS,5R,6aR)-3-Isobutyl-2-oxohexahydro-2H-cyclopenta[d]-oxazol-5-yl ((2S,3R)-3-Hydroxy-4-((N-isobutyl-4-methoxyphenyl)sulfonamido)-1-phenylbutan-2-yl)carbamate], the “IC50 fold-change (in parentheses)” value was 7 in the series with HIV-1APV^R5 μM, 1 in the series on HIV-1ATV^R5μM and 15 in the series on HIV-1LPV^R5μM. Besides, the selectivity index in the series with MT-4 cells was greater than 2439. Moreover, the IC50 in series [3] fell in the range of 33 to 615 nM.

Regarding `CC(C)CN(C[C@@H](O)[C@H](Cc1ccccc1)NC(=O)O[C@H]1CO[C@H]2OCC[C@H]21)S(=O)(=O)c1ccc(N)cc1` [DRV, darunavir, reference compound], the IC50 in the series on HIV-1NL4–3 [1] turned out to be 3.5 ± 0.09 nM.

In general, IC50 refers to the concentration that inhibits the measured activity by half.
